The source of these data is patent US6218431A, “Substituted biphenyls” (Bayer Corporation, priority 1997, dated 2001).

pIC50: −log10 of the molar value.

The target in the first experiment is T1, glucagon receptor (Homo sapiens, UniProt P47871).
T1 construct: expressed in transfected cells; host or cells: Chinese Hamster Ovary cells (CHO-HGR), membranes
T1 sequence (P47871 26-477): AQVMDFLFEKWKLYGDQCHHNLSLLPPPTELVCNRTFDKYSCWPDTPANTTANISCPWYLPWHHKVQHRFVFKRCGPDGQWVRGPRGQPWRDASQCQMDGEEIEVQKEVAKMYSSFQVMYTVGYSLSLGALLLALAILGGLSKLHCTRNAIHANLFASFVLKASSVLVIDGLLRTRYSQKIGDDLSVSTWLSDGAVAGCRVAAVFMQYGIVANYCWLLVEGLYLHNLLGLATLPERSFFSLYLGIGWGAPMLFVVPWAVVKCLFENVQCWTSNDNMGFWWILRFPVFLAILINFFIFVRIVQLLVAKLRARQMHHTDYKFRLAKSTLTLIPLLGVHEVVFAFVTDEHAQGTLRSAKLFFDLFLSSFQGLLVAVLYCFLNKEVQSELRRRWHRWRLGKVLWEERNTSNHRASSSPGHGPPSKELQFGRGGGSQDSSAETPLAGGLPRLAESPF
Nature of the experiment: glucagon receptor binding assay (125I-glucagon, CHO-HGR membranes). The conditions noted are these: 20 μM; reported where 20 μM did not reduce glucagon binding by 50%. The procedure:
The affinity for the glucagon receptor of compounds of the present invention is determined by the glucagon receptor binding assay. Membranes were prepared from Chinese Hamster Ovary cells expressing the glucagon receptor (CHO-HGR) by scraping the cells into hypotonic lysis buffer (10 mM Tris, pH 7.4, 2 mM EDTA, 5 mM MgCl2 and 1 mM PMSF) and subjecting the material to Polytron homogenization. Nuclei were removed by a 15-min 800×g centrifugation step conducted at 4° C. Membranes containing the receptor were collected by centrifugation at 15,000×gfor 15 min at 4° C. The membranes were washed once in lysis buffer and suspended in 0.25 M sucrose, 10 mM Tris, 5 mM EDTA, pH 7.4. The membranes were used in ligand binding studies as reported (Yoo-Warren, H., Willse, A. G., Hancock, N., Hull, J., McCaleb, M., and Livingston, J. Regulation of Rat Glucagon Receptor Expression. Biochem. Biophysical Res. Commun. 1994, 205, 347-353). In brief, 10 ug of membrane protein was incubated in 130 μl of binding buffer that consisted of 20 mM Tris, […], 1 mM EDTA, 1 mg/ml BSA, and 1 mg/ml bacitracin. The membrane suspension was placed in each well of a 96-well filtration plate (glass fiber type C, Millipore). […] Following the addition of test compound, 50 μl of ^125 I-glucagon (9 fmol) (NEN) was added to each well. Control wells contained membranes, 0.5% DMSO (solvent for test compounds), radiolabeled glucagon without and with excess native glucagon (1 μM) to establish nonspecific binding. The plates were incubated for 60 min at room temperature, and then filtered on a Mllipore vacuum apparatus. Following a wash step with ice-cold PBS/0.1% BSA, the filters were punched into test tubes, and the membrane bound radioactivity was determined.
As for `CCCCC(O)c1c(C(C)C)nc(C(C)C)c(CO)c1-c1ccc(F)cc1` (racemic) [Example 95, (±)-2,6-Diisopropyl-3-hydroxymethyl-4-(4-fluorophenyl)-5-(1-hydroxy-pentyl)pyridine], 20 µM produced 26.5% inhibition. With `CCCCCc1c(C(C)C)nc(C(C)C)c(CO)c1-c1ccccc1OC` [Example 173, 2,6-Diisopropyl-3-hydroxymethyl-4-(2-methoxyphenyl)-5-pentylpyridine], 20 µM produced 27.4% inhibition. With `CCCCCc1c(C)nc(C)c(CO)c1-c1ccccc1` [Example 4], at 20 µM the inhibition was 1.98%.

Take `CCC/C=C/c1c(C(C)C)nc(C(C)C)c(CO)c1-c1ccc(C(F)(F)F)cc1` [Example 125, 2,6-Diisopropyl-3-hydroxymethyl-4-[(4-trifluoromethyl)phenyl]-5(pent-1-enyl)pyridine]: the inhibition (as a rule, the share of the control response that was lost under treatment) at 20 µM came to 31.6%. Consider `CCCCCc1c(C(C)C)nc(C(C)C)c(CCO)c1-c1ccc(F)cc1` [Example 119, 2,6-Diisopropyl-3-(2-hydroxyethyl)-4-(4fluorophenyl)-5-pentylpyridine], for which at 20 µM the inhibition was 30.2%. With `CC(C)c1nc(C(C)C)c(CCCC(=O)O)c(-c2ccc(F)cc2)c1CO` [Example 92, 2,6-Diisopropyl-3-hydroxymethyl-4-(4-fluorophenyl)-5-(3carboxypropyl)pyridine], the inhibition at 20 µM stood at 11.6%.

In the case of `CC(C)c1nc(C(C)C)c(CN2CCC(N3CCCCC3)CC2)c(-c2ccc(F)cc2)c1CO` [Example 74, 2,6-Diisopropyl-3-hydroxymethyl-4-(4-fluorophenyl)-5-[(4-piperidinopiperidin-1-yl)methyl]pyridine], the inhibition at 20 µM was determined as 27.1%. The molecule `CCCC=Cc1c(C(C)C)nc(C(C)C)c(CO)c1-c1cccc(F)c1` [Example 127, 2,6-Diisopropyl-3-hydroxymethyl-4-(3-fluorophenyl)-5-(pent-1-enyl)-pyridine] displayed an inhibition at 20 µM of 45.5%. The same measure, in the same setting: to `C=CC(O)c1c(C(C)C)nc(C(C)C)c(CCCCC)c1-c1ccc(F)cc1` (racemic) [Example 114, (±)-2,6-Diisopropyl-3-(1-hydroxy-2-propenyl)-4-(4-fluorophenyl)-5-pentylpyridine] belongs 38.5%; to `CCCCCc1c(C(C)C)nc(C(C)C)c(CO)c1-c1ccc(CC)cc1` [Example 132, 2,6-Diisopropyl-3-hydroxymethyl-4-(4-ethylphenyl)-5-pentylpyridine], 42.5%; to `CCCCCc1c(COC)nc(C(C)C)c(CO)c1-c1ccc(F)cc1` [Example 201, 2-Methoxymethyl-3-pentyl-4-(4-fluorophenyl)-5-hydroxymethyl-6-isopropylpyridine], 46.7%.

The same experiment, now with this note: 125I-glucagon; 60 min at room temperature; read-out: IC50.
Turning to `Cc1ccc(SCc2c(C(C)C)nc(C(C)C)c(CO)c2-c2ccc(F)cc2)cc1` [Example 50, 2,6-Diisopropyl-3-hydroxymethyl-4-(4-fluorophenyl)-5-[((4-methyl)-phenyl)thio]methylpyridine], the pIC50 (commonly the negative decadic logarithm of the IC50, by convention in mol/L) is 6.05. Same read-out and setting: with `CCCCCc1c(C(C)OCC)nc(C(C)C)c(CO)c1-c1ccc(F)cc1` (stereo not shown) [Example 217, 2-(1-Ethoxyethyl)-3-pentyl-4-(4-fluorophenyl)-5-hydroxymethyl-6-isopropylpyridine] the figure was 5.10; with `CCCCCc1c(C(C)C)nc(C(C)C)c(CO)c1-c1cccnc1` [Example 186, 2,6-Diisopropyl-3-hydroxymethyl-4-(pyridin-3-yl)-5-pentylpyridine], 4.70. On the same count and under the same terms, to `COc1ccccc1SCc1c(C(C)C)nc(C(C)C)c(CO)c1-c1ccc(F)cc1` [Example 60, 2,6-Diisopropyl-3-hydroxymethyl-4-(4-fluorophenyl)-5-[(2-methoxy-phenyl)thio]methylpyridine] belongs 5.80; to `CCCC=Cc1c(C(C)C)nc(C(C)C)c(CO)c1-c1ccoc1` [Example 187, 2,6-Diisopropyl-3-hydroxymethyl-4-(3-furyl)-5-(pent-1-enyl)pyridine], 4.92. As to `CCCc1c(C)cc(C)c(C(C)O)c1-c1ccc(F)cc1` (stereo not shown) [Example 195, 3,5-Dimethyl-2-(1-hydroxyethyl)-6-propyl-4'-fluoro-1,1'-biphenyl], the pIC50 is 4.92. The same measure, in the same setting: to `CC(C)c1nc(C(C)C)c(CSc2cccc(C(F)(F)F)c2)c(-c2ccc(F)cc2)c1CO` [Example 48, 2,6-Diisopropyl-3-hydroxymethyl-4-(4-fluorophenyl)-5-[((3-trifluoro-methyl)phenyl)thio]methylpyridine] belongs 5.74.

Take `CCCCCc1c(C(C)C)nc(C(C)C)c(CO)c1-c1ccoc1` [Example 188, 2,6-Diisopropyl-3-hydroxymethyl-4-(3-furyl)-5-pentylpyridine]: the pIC50 is 4.98. With `CC(C)c1nc(C(C)C)c(CSc2c(F)c(F)cc(F)c2F)c(-c2ccc(F)cc2)c1CO` [Example 53, 2,6-Diisopropyl-3-hydroxymethyl-4-(4-fluorophenyl)-5-[(2,3,5,6-tetra-fluorophenyl)thio]methylpyridine], the negative-log IC50 (pIC50) was 5.31. The same measure, in the same setting: with `CCCc1c(C(C)C)nc(C(C)C)c(CO)c1-c1ccc(F)cc1O` (racemic) [Example 239-rac, 2,6-Diisopropyl-3-(1-hydroxymethyl)-4-(4-fluoro-2-hydroxyphenyl)-5-propylpyridine] the figure was 7.10. Turning to `Cc1ccc(COCc2c(C(C)C)cc(C(C)C)c(C(C)O)c2-c2ccc(F)cc2)cc1` (single isomer, unassigned; (+)) [Example 248, (+)-3,5-Diisopropyl-2-[(p-methylbenzyloxy)methyl]-6-(1-hydroxyethyl)-4'-fluoro-1,1'-biphenyl], the pIC50 was 6.51. For `COc1ccc(SCc2c(C(C)C)nc(C(C)C)c(CO)c2-c2ccc(F)cc2)cc1` [Example 56, 2,6-Diisopropyl-3-hydroxymethyl-4-(4-fluorophenyl)-5-[(4-methoxy-phenyl)thio]methylpyridine], the pIC50 is 5.72.

For the molecule `CCCCCc1c(C(C)C)nc(C(C)C)c(CO)c1-c1cccc(O)c1` [Example 153, 2,6-Diisopropyl-3-hydroxymethyl-4-(3-hydroxyphenyl)-5-pentylpyridine], the pIC50 is 5.22. The same measure, in the same setting: to `CC(C)c1nc(C(C)C)c(CCc2ccccc2)c(-c2ccc(F)cc2)c1CO` [Example 37, 2,6-Diisopropyl-3-hydroxymethyl-4-(4-fluorophenyl)-5-(2-phenylethyl)pyridine] belongs 6.12; to `CCCCCc1c(C=CC(=O)OC)nc(C(C)C)c(CO)c1-c1ccc(F)cc1` [Example 215, 2-(2-Carbomethoxyethenyl)-3-pentyl-4-(4-fluorophenyl)-5-hydroxymethyl-6-isopropylpyridine], 4.72. The same measure, in the same setting: with `CC(C)c1nc(C(C)C)c(CSc2cccc3ccccc23)c(-c2ccc(F)cc2)c1CO` [Example 51, 2,6-Diisopropyl-3-hydroxymethyl-4-(4-fluorophenyl)-5-(1-naphthylthio)-methylpyridine] the figure was 4.80; with `CCCc1c(C(C)C)nc(C(C)C)c(CO)c1-c1ccccc1` [Example 17], 6.22.

Consider `CCCCCc1c(C(C)C)nc(C(C)C)c(CO)c1-c1ccc(F)c(F)c1` [Example 159, 2,6-Diisopropyl-3-hydroxymethyl-4-(3,4-difluorophenyl)-5-pentyl-pyridine], for which the pIC50 is 5.96. For `CCCCCc1c(C(C)C)nc(C(C)C)c(CO)c1-c1ccc(F)cc1` [Example 1], the pIC50 was 6.22. For `CC(C)c1nc(C(C)C)c(CCCCc2ccccc2)c(-c2ccc(F)cc2)c1CO` [Example 39], the pIC50 was 5.89. The same measure, in the same setting: with `CC1=CC(C)(C)Cc2c1nc(C(C)C)c(C(C)O)c2-c1ccc(F)cc1` (stereo not shown) [Example 237, 2-Isopropyl-3-(1-hydroxyethyl)-4-(4-fluorophenyl)-5,6-dihydro-6,6,8-trimethylquinoline] the figure was 5.92. The same measure, in the same setting: with `CC(C)c1nc(C(C)C)c(C(C)O)c(-c2ccc(F)cc2)c1CSc1ccccc1` (racemic) [Example 113, (±)-2,6-Diisopropyl-3-(1-hydroxyethyl)-4-(4-fluorophenyl)-5-phenylthio-methylpyridine] the figure was 6.22; with `CCCCCCc1c(C(C)C)nc(C(C)C)c(CO)c1-c1ccccc1` [Example 16, 2,6Diisopropyl-3-hydroxymethyl-4-phenyl-5-hexylpyridine], 6.07; with `CCCc1c(C(C)C)nc(C(C)C)c(CO)c1-c1ccc(F)cc1` [Example 25, 2,6-Diisopropyl-3-hydroxymethyl-4-(4-fluorophenyl)-5-propylpyridine], 6.40. The same measure, in the same setting: with `CCCC=Cc1c(C(C)C)nc(C(C)C)c(CO)c1-c1ccc(C)cc1` [Example 129, 2,6-Diisopropyl-3-hydroxymethyl-4-(4-methylphenyl)-5-(Pent-1-enyl)-pyridine] the figure was 5.82; with `CC(C)CCc1c(C(C)C)nc(C(C)C)c(CO)c1-c1ccc(F)cc1` [Example 29, 2,6-Diisopropyl-3-hydroxymethyl-4-(4-fluorophenyl)-5-(3-methylbutyl)pyridine], 6.00.
